Assays:
[1] = system: Frings audiogenic seizure-susceptible mice; details: general statement on prototypical anticonvulsants; cited from earlier work
[2] = system: Frings audiogenic seizure-susceptible mice; assay: Frings audiogenic seizure (AGS)-susceptible mouse model; type: in vivo; details: Mus musculus, ip, sound-induced seizures
Text: Frings audiogenic seizure (AGS)-susceptible mice model examines the ability of an investigational drug to alter the onset and/or severity of seizures in a genetic mouse model of seizure susceptibility. Mice are genetically susceptible to sound-induced reflex seizures. Their seizure phenotype is characterized by wild running, loss of righting reflex, tonic flexion, and tonic extension in response to high-intensity sound stimulation. […] For example, the prototypical anticonvulsants phenytoin and ethosuximide display widely divergent clinical spectrums in humans, but are both active against sound-induced seizures in mice. Yet, the preclinical utility of this animal model rests in the useful information that can be obtained within a genetically susceptible model of seizures. Further, efficacy in this model provides proof of concept of brain bioavailability following systemic administration. The Frings AGS-susceptible mouse has a well-validated epilepsy phenotype that makes it particularly useful as a screening model. Beginning at about 21 days of age, Frings AGS-susceptible mice display prominent seizure activity in response to a high-intensity sound stimulus. They then remain susceptible to sound throughout their life. This is in stark contrast to the DBA2J AGS-susceptible mouse, which is the other common model of sound-induced seizures, as DBA2J mice are only susceptible to sound-induced seizures during a narrow developmental window (post-natal days 18-30). Thus, the Frings AGS-susceptible mouse seizures respond to a wide range of CNS-active drugs and display sound-induced seizures throughout their lifetime. In this regard, Frings AGS-susceptible mice are a highly useful screening model for the identification and characterization of compounds potentially effective against inherited epilepsy.
Male and female Frings audiogenic seizure-susceptible mice (18-25 g) are maintained in an in-house colony at the University of Utah. For each screening test, groups of 8 mice each are treated i.p. with varying doses of the investigational compound. At the time of peak effect as determined in the MES test (Test 4 in CF1 mice), individual mice are placed in a round plexiglass jar (diameter, 15 cm, height, 18 cm) and exposed to a sound stimulus of 110 decibels (11 KHz) delivered for 20 sec. Mice are observed for 25 sec for the presence or absence of hind limb tonic extension. Mice not displaying hind limb tonic extension are considered protected. The severity of a seizure may also be quantitated by assigning a numerical score to the observed response, e.g. no response—0; wild running for <10 sec—1; wild running for >10 sec—2; clonic seizure—3; forelimb extension/hind limb flexion—4; tonic seizure—5.

mouse [3] = details: literature report; cited from earlier work
mouse [4] = details: literature report; cited from earlier work; remark: listed apart in the source
[5] = Fixed speed rotorod, gross motor function (rat); details: male, Sprague-Dawley, in vivo, po
Experimental: (§1) On the test day following a defined drug pretreatment period, rats received a maximal electroshock (150 mA, 0.2 s duration, 60 Hz) via corneal electrodes. Protection was defined as absence of a full tonic seizure within 10 s of stimulus delivery. Twenty minutes before the MES procedure, the animals were tested on a fixed speed rotorod (best score from 3 trials at 8 r.p.m, trial duration=60 s) to give an early assessment of drug effect on gross motor function.

Male Sprague-Dawley rats = assay: Maximal Electroshock Seizure (MES) rat model; type: in vivo; details: po, 4 hours
Experimental: (§2) Male, Sprague-Dawley rats and CD-1 mice were used for all studies. All animals were allowed ad-lib access to food and water except during experiment. Animals were housed within an animal vivarium maintained under a 12 h light:dark cycle (lights on: 07:00 h), and all experiments were conducted in the animals light phase. For all experiments, animals were habituated to the vivarium for a minimum of 72 h before experimentation. The experimental procedures used in the present investigation were conducted under the Association for Assessment and Accreditation of Laboratory Animal Care (AAALAC) and the Canadian Council on Animal Care (CCAC) guidelines.
(§3) All compounds were sonicated in 5% Tween 80® in saline or methylcellulose 0.5% (wgt/vol), using MC and sterile water and injected in a dose volume of 5 ml/kg or 10 ml/kg (rat), and 10 ml/kg (mouse). Drugs were administered by either the oral, intraperitoneal or intravenous route.
Male Sprague-Dawley rats of body weight 80-100 g were used for these studies. Each experiment was conducted over 3 consecutive days. On day 1 and 2, each rat received a single electrical stimulus (150 mA, 0.2 s duration, 60 Hz) via corneal electrodes moistened with saline (Shock stimulator type 221: Harvard apparatus). […] Typically this reflected approximately 70-90% of the initial group.
as §1

CD-1 mice = assay: s.c Pentylenetetrazole (PTZ) mouse model; type: in vivo; details: ip, PTZ 85 mg/kg s.c.
Experimental: as §2, §3
Sixty minutes following drug or vehicle pretreatment, all mice received a single subcutaneous injection of pentylenetetrazol (PTZ; 85 mg/kg). The animals were then transferred to single observation cages (dimension: 11.5″×7.5″×5″) and observed continuously for 30 min. […] In the event of a seizure, the onset latency from PTZ injection was recorded.

MTLE mice = assay: Model of mesial temporal lobe epilepsy (mTLE), hippocampal paroxysmal discharges; type: in vivo, mouse; details: after 600 mg/kg, mice 4 weeks after intra-hippocampal KA
Text: The MTLE mouse model recapitulates many of the characteristics observed in human patients with temporal lobe epilepsy (TLE). The MTLE mouse is characterized by an initial neurotoxic event, a unilateral intrahippocampal injection of kainic acid (KA) into the dorsal hippocampus, which induces non-convulsive SE lasting several hours. This initial event is followed by a latent phase. Two to three weeks after KA injection, spontaneous recurrent hippocampal paroxysmal discharges (HPD) are only recorded in the epileptic hippocampus and remain stable and stereotyped for the whole life of the animal. These HPDs occur spontaneously about 30-60 times per hour when the animals are in a state of quiet wakefulness, generally last 15-20 sec and are associated with behavioral arrest and/or mild motor automatisms. Adult, male […] mice are stereotaxically injected with kainate (1 nmol in 100 nL) and implanted with 1 bipolar electrode in the dorsal hippocampus, and then allowed to recover for four weeks prior to evaluation in the screening protocol. Using a group size of 4 MTLE mice per dose of investigational compound, the compounds are typically first tested using the 6 Hz 44 mA ED50 value. […] For all acute studies, drug conditions are counter-balanced in MTLE mice over a two week period using a Latin square dosing protocol. Animals are used as their own controls. Digital EEG recordings are performed on freely moving animals for 20 minutes pre-injection (reference period) and 90 minutes post-injection. Data are analyzed for the period of 10 minutes before and 10 minutes after peak time of effect of the investigational compound, as determined from the 6 Hz 44 mA seizure test. The effects of the injected compound are compared to the reference period. Any accompanying effect on animal behavior is noted. Data are presented as the raw number of HPDs during the analyzed 20 min period (10 minutes before and 10 minutes after peak time of effect of compound) for each MTLE mouse, group mean number of HPDs, and effect on suppression as represented by percent of baseline HPD values.

## O=C1NC(=O)C(c2ccccc2)(c2ccccc2)N1 [Phenytoin]
[1]
  activity against sound-induced seizures in mice: active
[2]
  ED50: 3.8 mg/kg

## NCC1(CC(=O)O)CCCCC1 [Gabapentin]
[2]
  ED50: 91.1 mg/kg

## O=C1CCc2cc(OCc3ccccc3)ccc2N1
Mouse [3]
  activity in mouse electroshock seizure (MES) model: active
Mouse [4]
  activity in pentylenetetrazole (PTZ) model: active

## Nc1nnc(-c2cccc(Cl)c2Cl)c(N)n1 [Lamotrigine]
[2]
  ED50: 2.39 mg/kg

## O=C1Nc2ccc(OCc3ccccc3)cc2OC1(F)F [I(D), 7-Benzyloxy-2,2-difluoro-4H-benzo[1,4]oxazin-3-one]
[5]
  ED50 at 4 hours: > 120 mg/kg
Male Sprague-Dawley rats
  ED50: 30.5 ± 0.8 mg/kg

## NC(=O)OCC(COC(N)=O)c1ccccc1 [Felbamate]
[2]
  ED50: 10 mg/kg

## O=C1COc2cc(OCc3ccccc3)ccc2N1 [Compound 1, 7-Benzyloxy-4H benzo[1,4]oxazin-3-one, reference compound]
CD-1 mice
  ED50: > 300 mg/kg
Male Sprague-Dawley rats
  ED50: > 300 mg/kg

## CC[C@@H](C(N)=O)N1CCCC1=O [Levetiracetam, reference compound]
MTLE mice; HPD
  Effect (% baseline): 68.7 % baseline
MTLE mice
  Mean HPD Counts: 14.3

## CCC1(C)CC(=O)NC1=O (centres unmarked) [Ethosuximide]
[1]
  activity against sound-induced seizures in mice: active
[2]
  ED50: 328 mg/kg

## CCCC(CCC)C(=O)O [Valproic Acid]
[2]
  ED50: 155 mg/kg

## NC(=O)N1c2ccccc2C=Cc2ccccc21 [Carbamazepine]
[2]
  ED50: 11.2 mg/kg
